A melting point compilation (Tetko et al.; mined from patent text by program, amines drawn as free bases though some values may be those of a salt)

Compound | melting point [°C]
CCCCCC(CC(=O)Nc1cc(CCC(=O)O)ccc1C(C)(C)C)c1c(OC)cccc1OC (stereo not given) | 52 to 53
CC(N)c1nc2cccc(Cl)c2c(=O)n1-c1cc(F)cc(F)c1 (stereo not given) | 200 to 202
CCCCc1nc2sc(Cl)cc2c(=O)n1CCC | 67 to 69
O=C1CC(=C[N+](=O)[O-])Nc2ccc(Cl)cc2N1c1ccccc1 | 248 to 251
CCOc1ccc(C(=O)Nc2ccccc2)cc1NC(=S)Nc1cc(Cl)cc(Cl)c1 | 201 to 202
COc1ccc(Cn2c(N)c(NC(=O)C(C)C)c(=O)[nH]c2=O)cc1OC | 207 to 210
CCCCCCCCCCCCN=C=S | 75 to 80
CCOc1nn(Cc2ccc(Cl)cc2Cl)cc1CCCOc1cc(CCC(=O)O)n(Cc2ccccc2)n1 | 84 to 85
N#Cc1cn2c(nc1=O)CCCCC2 | 205 to 206
COC(=O)[C@H](Cc1ccc([N+](=O)[O-])cc1)NC(=O)C1(CCCCS(C)(=O)=O)CCCC1 | 40 to 44
C#Cc1ccc(C2SCC(C(C)(C)C)CS2)cc1 (stereo not given) | 149
c1cc2sccc2cn1 | < 50
CC(=O)c1ccc(OCCN2CCN(c3cc(Cl)nnc3Cl)CC2)cc1 | 115 to 117
CC(C)(C)OC(=O)Nc1ccccc1NC(=O)c1ccc(C#N)nc1 | 183 to 184
NS(=O)(=O)c1cc(C(=O)O)cc(SCC(Br)CBr)c1Cc1ccccc1 (stereo not given) | 205 to 207
CCc1noc(C)c1-c1[nH]c2ccccc2c1C(=O)CCC(=O)O | 98 to 110
COc1cc2oc(=O)c3c(c2cc1OC)CCNC3 | 186 to 188
O=C(O)Cc1cccc2c(-c3ccc(F)cc3)nccc12 | 214 to 216
O=C(O)C(=O)c1ccc(OCCCc2ccc(F)cc2)cc1 | 77 to 78
O=C(NCCc1nnn[nH]1)C(CS)C(F)(F)F (stereo not given) | 182 to 184

Compound | melting point [°C]
CC(C)(C)Cc1ccc(C(=O)c2ccccc2C(=O)O)cc1 | 154
NC(=O)C(Nc1ccc2ccccc2c1)c1c(Cl)cccc1Cl (stereo not given) | 158
CCOC(CNc1nncs1)OCC | 108 to 112
Cc1cccc(C=CCC(CCC(=O)O)(C(=O)C=Cc2ccc(Cl)cc2)c2ccccc2)c1 (stereo not given) | 135 to 144
CCCN1C(=O)N2C[C@@H](Cc3ccccc3)N=C2c2c1nc(Br)n2Cc1ccccc1 | 200 to 206
CONC(=N)NC(=O)Nc1c(C)cccc1C | 78 to 80
CCC(CC)Oc1cc(C)nc(Nc2c(C)cc(C)cc2C)c1C | 132 to 133
O=C1c2cc(O)ccc2OCC1Cc1ccncc1 (stereo not given) | 188 to 190
NC(=O)c1ccc(N2CCN(CCC3C=Cc4ccccc43)CC2)cc1 (stereo not given) | 207
CC(=O)OCCN1C(=O)CN2CCOC2(c2ccccc2F)c2cc(Cl)ccc21 (stereo not given) | 120 to 123
CCCCc1nc(C)c(CCC(=S)N(CC)CC)c(=O)n1Cc1ccc(-c2ccccc2-c2nnn[nH]2)cc1 | 77.8 to 81.1
Cc1ncccc1-c1cncc(OC2SCC(O)C(O)C2O)c1 (stereo not given) | 204 to 207
COc1cccc(Oc2c(NS(=O)(=O)c3ccc(C(C)(C)C)cc3)nc(C(=O)Nc3ccccc3)nc2OCCO)c1 | 143
COC(=O)/C=C/c1ccc(/C=C/c2ccncc2)nc1 | > 143
COC(=O)c1ccc(-c2nc(Nc3cc(OC)c(OC)c(OC)c3)ncc2C#N)cc1 | 206 to 208
CCCN1CCn2c(=O)[nH]c3cccc(c32)C1C (stereo not given) | 124
CC(C)(C)OC(=O)N1CCN(c2cccc(Cl)c2C=O)CC1 | 100 to 103
CCCCCCN(C)c1ccc(C=C2SC(=S)N(CC(=O)NS(=O)(=O)c3ccccc3)C2=O)cc1 | 173 to 177
CCC(=O)OCc1ccc2oc(=O)c(C(=O)Oc3cncc(Cl)c3)cc2c1 | 156 to 158
Cc1ccc(-c2ccc(Cl)c(C(=O)NCC34CC5CC(CC(C5)C3)C4)c2)c(C(=O)O)n1 | 125 to 130

Compound | melting point [°C]
CC(=Cc1ccc(N(C)C)cc1Cl)[N+](=O)[O-] | 93 to 94
ClCSc1n[nH]c(C(c2ccccc2)(c2ccccc2)c2ccccc2)n1 | 121 to 122
Cn1ncc2c1-c1c(Sc3ccccn3)sc(C(N)=O)c1CC2 | 234 to 236
Cc1ncnn1-c1cc(F)ccc1CNC(=O)c1nc2n(c(=O)c1OCc1ccccc1)CCN2C(C)C | 158 to 159
O=c1c2ccccc2nc(CCl)n1-c1ccccc1 | 152 to 153
CCCCOc1ccc2c(O)c(C(=O)NCC(=O)O)ncc2c1 | 151 to 153
CCCCCCCCCCNC(=O)Nc1ccccc1C(=O)NC1CCN(C(c2ccccc2)c2ccccc2)CC1 | 204 to 206
CCCCCCCCc1ccc(C(O)CCCCCC(=O)OC)cc1 (stereo not given) | 49 to 50
CC(=O)Nc1ccc(C(=O)O)c([N+](=O)[O-])c1 | 217 to 220
CCOC(=O)c1cn(-c2ccc(F)cc2)c2cc(F)c(F)c(C)c2c1=O | 256 to 259
C#CC1(c2ccc(OC)c(OC3CCCC3)c2)CC(=O)C1 | 58 to 59
O=C(O)/C=C/c1ccc(-c2nc3c(=O)n(CCC4CCCCCC4)c(=O)n(CCC4CCCCCC4)c3[nH]2)cc1 | > 250
NS(=O)(=O)c1ccc(-c2cccc(-c3nc(-c4ccc(Cl)s4)cc(C(F)(F)F)n3)c2)s1 | 233
CNc1ccc(C=CC(=O)N2CCc3c([nH]c4ccccc34)C2c2ccc3c(c2)CCO3)cn1 (stereo not given) | 171
Cn1cc(C(=O)O)cc1C(=O)OC(c1ccc2c(c1)OCO2)c1ccc2c(c1)OCO2 | 103 to 110
CC(NC(Nc1ccc2c(c1)OCO2)=C(C#N)S(=O)(=O)c1ccc(Cl)cc1)C(C)(C)C (stereo not given) | 160 to 162
NS(=O)(=O)c1ccc(NC(=O)CNc2ccccc2)cc1Cl | 192 to 194
Cn1c(C(F)(F)F)c(C#N)c2ccc(Cl)cc21 | 142 to 145
C[C@]1(O)c2ccccc2CC[C@H]1O (relative stereo) | 75

More lines, now with the values ahead:

melting point [°C] | Compound
225 to 226 | O=[N+]([O-])/C=C/c1c2n(c3ccccc13)CCNCC2
150 | CCCc1c(C(=O)O)c(=O)cc(-c2ccccc2)n1C
160 to 165 | CC(CS)C(=O)Nc1cncc(C(=O)O)c1 (stereo not given)
151 to 152 | Cc1oc(-c2ccccc2)nc1COc1ccc(CC2SC(=O)NC2=O)cn1 (stereo not given)
195 to 196 | O=C1CSc2ccc3ccccc3c2N1
212 to 214 | Cc1c(C(=O)c2cc(O)c(O)c([N+](=O)[O-])c2)[nH]c2ccccc12
57 | CC(C)NNc1ncnc2c1cnn2C
208 to 209 | O=S(=O)(c1ccc(C(CC2CCOCC2)c2ccc(-c3nnc(CO)s3)[nH]2)cc1)C1CC1 (stereo not given)
249 to 251 | COC(=O)c1ccc2c(c1)C(=O)c1c-2n(CCCNS(=O)(=O)c2ccccc2)c(=O)c2cc(OC)c(OC)cc12
72 to 73 | CSc1ccc(N)c([N+](=O)[O-])c1
126 to 127 | CCOC(=O)c1c(O)c2ccccc2c2nc3ccccc3nc12
253 to 254 | C[C@@H]1CN(c2cc3c(c(N)c2F)c(=O)c(C(=O)O)cn3C2CC2)C[C@H](C)N1
191 to 193 | CC1(C)CON(Cc2ccc(NC(=O)C3CC3)cc2Cl)C1=O
130 to 132 | CC(C)CN1N=Cc2cc(S(N)(=O)=O)sc2S1(=O)=O
180 to 182 | CN(C)[C@H]1CC[C@@H](n2cc(-c3ccc(Oc4ccccc4)cc3)c3c(N)ncnc32)CC1
98 to 99 | O=C(O)c1c(F)c(F)cc([N+](=O)[O-])c1F
106 to 107 | Fc1ccc(-c2nc(Cl)nc3c2CCC3)cc1
129 | CC(=O)OC1CSC(Oc2cccc(-c3ccc(Cl)nc3)c2)C(OC(C)=O)C1OC(C)=O (stereo not given)
84.7 | COC(=O)C1(N2CCCCC2)CCN(Cc2ccccc2)CC1
48 to 50 | CCOC(=O)c1c(C)nc2scnc2c1NC(C)C
> 350 | O=c1[nH]ccc2c1c(O)nc1cc(Cl)c(Cl)cc12

melting point [°C] | Compound
100 to 102 | CCCCNC(=O)c1ccc(-c2ccc3nnn(Cc4ccc5ncccc5c4)c3n2)cc1F
110 to 111 | CS(=O)(=O)c1ccc(-c2cc(C(F)F)nn2-c2cccc(C(F)(F)F)c2)cc1F
124 to 128 | COc1ccccc1Oc1c(N)nc(-c2ncccn2)nc1OCCOc1ncc(Br)cn1
178 to 180 | CNC(=O)C(NC(=O)OCc1ccccc1)C(N)=O (stereo not given)
184 to 186 | O=c1[nH]c2ncc(Cl)cc2o1
122 to 123 | CC(=O)c1cc2cc(OCCNC[C@H](O)COc3ccccc3)ccc2o1
98 to 99.8 | CCC(=O)N(Cc1cccc2c1S(=O)(=O)N=C2C1=C(O)C(C(C)(C)C)N(Cc2ccc(F)c(C)c2)C1=O)S(C)(=O)=O (stereo not given)
248 to 250 | COc1cc(-c2ccc(C#N)cc2)c2nc(-c3ccc(OC)c(F)c3)cc(O)c2c1
38 to 39 | CCOC(=O)c1ccc(C(F)(F)F)c(N)c1
201 to 205 | CCOC(=O)c1cn(-c2ncc(F)c(NC(C)(C)C)n2)c2c(Cl)c(F)c(F)cc2c1=O
148 to 151 | CCOc1ccc(C(C)=O)cc1S(N)(=O)=O
208 to 209 | CCC(C)Nc1cc(-c2ccc(Cl)cc2)nc2nn(C)cc12 (stereo not given)
212 to 215 | CCOC(=O)c1ncc2[nH]c3ccc(C(=O)OCc4ccccc4)cc3c2c1CC
129 to 130 | CCOc1cc2cc3c(Nc4cc(OC)c(Cl)cc4C)c(C#N)cnc3cc2cc1OCCCl
94 | COc1cc(Cl)cnc1OCC#Cc1ccc(Cl)nc1
215 to 217 | CCCCn1c2ccc(C#N)cc2c2cc(C#N)ccc21
197 | COc1ccc(CN(C)CCc2ccc(NC(=O)c3cccc4c(=O)c5cccc([N+](=O)[O-])c5[nH]c34)cc2)cc1OC
90 to 92 | COc1ccnc(N2CCN(C(=O)c3ccsc3)CC2)n1
308 to 310 | O=C(O)c1ccc2c(c1)ncn2-c1cc(Cl)ccc1O
220 to 221 | CCOC(=O)c1cc2c(cn1)[nH]c1ccc(N(C)C)cc12
